Reference: patent publication US20260001886A1, “ENPP1 INHIBITORS I” (RE Ventures I, LLC, priority 2024, published 2026)

Legend:
human CA-II (CA2) [1] = target: T1, human CA-II (CA2) (Homo sapiens (Human), UniProt P00918); assay: biochemical
Experimental: (§1) Cytiva Biacore S200, T200 and 3000 machines were used for all SPR experiments. […] For carbonic anhydrases, data were collected at a constant temperature of 25° C. Human CA-I (CA1) or human CA-II (CA2) was captured via standard EDC/NHS protocol on a Biacore CM5 chip using standard protocols in HBS-N buffer (10 mM HEPES (pH 7.4), 150 mM NaCl) at ˜2000 RU. The experiments were run in PBS buffer containing 0.05% Tween 20 and 3% DMSO. All compounds were initially screened at concentrations ranging from 23 nM to 50 µM or 4.6 nM to 10 µM, injecting from the lowest to highest concentrations and adjusting appropriately for each compound for repeat experiments. Scrubber 2 (Biologic software) was used to process and analyse SPR data. […] Data for the inhibitors were referenced to those for a blank surface and blank injections to normalise for non-specific binding and drift. A DMSO calibration was run to remove excluded volume effect of binding responses between reference and target surface.

human CA-I (CA1) = human CA-I (CA1) (Homo sapiens (Human), UniProt P00915); assay: Surface plasmon resonance, carbonic anhydrase I; conditions: 25° C., CM5 chip
Experimental: as §1

human CA-II (CA2) [2] = target: T1, human CA-II (CA2); assay: Surface plasmon resonance, carbonic anhydrase II; conditions: 25° C., CM5 chip
Experimental: as §1

Human ENPP1 = Human ENPP1 (Homo sapiens (Human), UniProt P22413)
Sequence of Human ENPP1 (P22413 whole entry): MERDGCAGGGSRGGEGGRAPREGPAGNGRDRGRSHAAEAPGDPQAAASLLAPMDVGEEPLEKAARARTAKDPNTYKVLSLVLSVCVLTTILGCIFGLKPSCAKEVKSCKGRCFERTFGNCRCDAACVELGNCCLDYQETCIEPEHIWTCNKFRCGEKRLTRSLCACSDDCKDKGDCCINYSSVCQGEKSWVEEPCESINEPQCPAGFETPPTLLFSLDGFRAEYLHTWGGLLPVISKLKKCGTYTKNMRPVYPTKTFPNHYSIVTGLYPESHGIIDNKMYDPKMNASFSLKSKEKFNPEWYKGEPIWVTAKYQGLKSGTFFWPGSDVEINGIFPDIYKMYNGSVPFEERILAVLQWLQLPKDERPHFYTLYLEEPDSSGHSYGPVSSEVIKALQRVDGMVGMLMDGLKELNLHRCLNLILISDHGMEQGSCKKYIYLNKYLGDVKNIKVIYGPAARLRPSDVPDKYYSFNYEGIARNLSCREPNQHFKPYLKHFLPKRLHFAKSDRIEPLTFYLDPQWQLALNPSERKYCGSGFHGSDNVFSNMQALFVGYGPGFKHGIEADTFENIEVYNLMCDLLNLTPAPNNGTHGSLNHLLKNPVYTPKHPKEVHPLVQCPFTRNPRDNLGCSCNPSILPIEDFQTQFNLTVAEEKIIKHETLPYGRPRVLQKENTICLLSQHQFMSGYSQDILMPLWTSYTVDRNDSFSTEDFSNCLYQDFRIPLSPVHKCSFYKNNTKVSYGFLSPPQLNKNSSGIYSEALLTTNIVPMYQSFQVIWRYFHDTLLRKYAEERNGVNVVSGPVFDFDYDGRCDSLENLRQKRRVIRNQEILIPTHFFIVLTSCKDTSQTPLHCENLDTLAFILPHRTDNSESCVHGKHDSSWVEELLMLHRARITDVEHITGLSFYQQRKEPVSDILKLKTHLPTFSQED
Experimental: ENPP1 catalyses the hydrolysis of ATP into AMP+PPi. AMP production was monitored using Bellbrooks Transcreener AMP/GMP TR-FRET assay kit (Cat No. 3020-10K) according to the manufacturer's instructions. The assay was run with 50 mM Tris pH 7.5, 5 mM MgCl2, 150 mM NaCl, 0.005% Tween20 and distilled H2O. Antibody and tracer were diluted to 2 nM. […] Mouse ENPP1 was run at 15 pM with ATP at 400 nM. AMP produced in the assay by ENPP1 activity competes with a far-red tracer labelled AMP bound to an AMP specific antibody resulting in a decrease in TR-FRET. ENPP1 inhibition reduces AMP production and increases the TR-FRET signal.

Sequence of human CA-I (CA1) (P00915 whole entry): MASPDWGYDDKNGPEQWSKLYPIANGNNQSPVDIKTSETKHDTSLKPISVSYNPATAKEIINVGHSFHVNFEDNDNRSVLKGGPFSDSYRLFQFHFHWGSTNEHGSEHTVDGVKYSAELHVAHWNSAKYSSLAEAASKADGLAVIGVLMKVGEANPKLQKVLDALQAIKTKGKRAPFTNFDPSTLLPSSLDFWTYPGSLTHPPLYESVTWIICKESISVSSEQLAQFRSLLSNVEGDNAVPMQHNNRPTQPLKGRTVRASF

| SMILES | Kd (human CA-II (CA2) [1]) [µM] | CA1 human SPR pKD (human CA-I (CA1)) | CA2 human SPR pKD (human CA-II (CA2) [2]) | EC50 (Human ENPP1) [µM] |
| --- | --- | --- | --- | --- |
| CC(C)c1cn(Cc2ccc(S(C)(=N)=O)cc2)c2cc(C3CC3)nn2c1=O (racemic) [3 Rac] | > 100000 |  |  |  |
| CC(C)c1cn(Cc2ccc([S@](C)(=N)=O)cc2)c2cc(C3CC3)nn2c1=O (single isomer, unassigned) [Compound 3A] | > 100000 |  |  |  |
| Cc1cc2n(Cc3ccc([S@](C)(=N)=O)cc3)cc(C(C)C)c(=O)n2n1 (single isomer, unassigned) [Compound 9B] |  | <1 | <1 |  |
| CC(C)c1cn(Cc2ccc(S(=N)(=O)C(F)F)cc2)c2nc(C3CC3)nn2c1=O (single isomer, unassigned) [Compound 50] |  |  |  | 0.0316 |
| Cc1cc([S@@](C)(=N)=O)ccc1Cn1cc(C(C)C)c(=O)n2nc(C3CC3)cc12 (single isomer, unassigned) [Compound 66] |  |  |  | 0.00126 |
| CC(C)c1cn(Cc2ccc([S@@](=N)(=O)C(C)C)cc2)c2nc(C3CC3)nn2c1=O (single isomer, unassigned) [Compound 68] |  |  |  | 0.00631 |
| CC(C)c1cn(Cc2ccc([S@](C)(=N)=O)cc2F)c2nc(C3CC3)nn2c1=O (single isomer, unassigned) [Compound 69] |  | <1 | <1 |  |
| Cc1nc2n(C[C@H]3C[C@H]4C[C@@H]3CN4S(N)(=O)=O)cc(-c3cccnc3)c(=O)n2n1 [Compound 2, (1S,4S,5S)-5-((2-methyl-7-oxo-6-(pyridin-3-yl)-[1,2,4]triazolo[1,5-a]pyrimidin-4(7H)-yl)methyl)-2-azabicyclo[2.2.1]heptane-2-sulfonamide] |  |  |  | 0.251 |
| Cc1nn2c(=O)c(C(C)C)cn(C[C@H]3C[C@H]4C[C@@H]3CN4S(N)(=O)=O)c2c1Cl [Compound 4, (1S,4S,5S)-5-((3-chloro-6-isopropyl-2-methyl-7-oxopyrazolo[1,5-a]pyrimidin-4(7H)-yl)methyl)-2-azabicyclo[2.2.1]heptane-2-sulfonamide] |  | 3.0 | 4.9 |  |
| Cc1nc2n(C[C@H]3C[C@H]4C[C@@H]3CN4S(N)(=O)=O)cc(-c3cccc(F)c3)c(=O)n2n1 [Compound 6, (1S,4S,5S)-5-((6-(3-fluorophenyl)-2-methyl-7-oxo-[1,2,4]triazolo[1,5-a]pyrimidin-4(7H)-yl)methyl)-2-azabicyclo[2.2.1]heptane-2-sulfonamide] |  | 3.0 | 3.6 | 0.1 |
| CC(C)c1cn(Cc2ccc(S(C)(=N)=O)cc2F)c2nc(C3CC3)nn2c1=O (centres unmarked) [Compound 12, 2-cyclopropyl-4-(2-fluoro-4-(S-methylsulfonimidoyl)benzyl)-6-isopropyl-[1,2,4]triazolo[1,5-a]pyrimidin-7(4H)-one] |  | <1 | 3.0 |  |
| Cc1nc2n(C[C@H]3C[C@H]4C[C@@H]3CN4S(N)(=O)=O)cc(-c3ccc(F)cc3)c(=O)n2n1 [Compound 14, (1S,4S,5S)-5-((6-(4-fluorophenyl)-2-methyl-7-oxo-[1,2,4]triazolo[1,5-a]pyrimidin-4(7H)-yl)methyl)-2-azabicyclo[2.2.1]heptane-2-sulfonamide] |  | <1 | 3.0 | 0.00398 |
| CC(C)c1cn(Cc2ccc(S(C)(=N)=O)c(C(F)(F)F)c2)c2cc(C3CC3)nn2c1=O (centres unmarked) [Compound 20, 2-cyclopropyl-6-isopropyl-4-(4-(S-methylsulfonimidoyl)-3-(trifluoromethyl)benzyl) pyrazolo[1,5-a]pyrimidin-7(4H)-one] |  |  |  | 0.00631 |
| CC(C)c1cn(Cc2ccc(S(C)(=N)=O)cc2)c2nc(OC3CC3)nn2c1=O (centres unmarked) [Compound 25, 2-cyclopropoxy-6-isopropyl-4-(4-(S-methylsulfonimidoyl)benzyl)-[1,2,4]triazolo[1,5-a]pyrimidin-7(4H)-one] |  |  |  | 0.00631 |
| CC(C)c1cn(Cc2c(F)cc(S(C)(=N)=O)cc2F)c2nc(C3CC3)nn2c1=O (centres unmarked) [Compound 26, 2-cyclopropyl-4-(2,6-difluoro-4-(S-methylsulfonimidoyl)benzyl)-6-isopropyl-[1,2,4]triazolo[1,5-a]pyrimidin-7(4H)-one] |  | 3.0 | 3.0 | 0.0126 |
| COCc1nc2n(Cc3ccc(S(C)(=N)=O)cc3)cc(C(C)C)c(=O)n2n1 (centres unmarked) [Compound 33, 6-isopropyl-2-(methoxymethyl)-4-(4-(S-methylsulfonimidoyl)benzyl)-[1,2,4]triazolo[1,5-a]pyrimidin-7(4H)-one] |  |  |  | 0.00794 |
| CC(C)c1cn(C[C@H]2C[C@H]3C[C@@H]2CN3S(N)(=O)=O)c2nc(Cl)nn2c1=O [Compound 34, (1S,4S,5S)-5-((2-chloro-6-isopropyl-7-oxo-[1,2,4]triazolo[1,5-a]pyrimidin-4(7H)-yl)methyl)-2-azabicyclo[2.2.1]heptane-2-sulfonamide] |  |  |  | 0.0158 |
| CC(C)c1cn(C[C@H]2C[C@H]3C[C@@H]2CN3S(N)(=O)=O)c2c3cccnc3nn2c1=O [Compound 41, (1S,4S,5S)-5-((3-Isopropyl-4-oxopyrido[2′,3′: 3,4]pyrazolo[1,5-a]pyrimidin-1 (4H)-yl)methyl)-2-azabicyclo[2.2.1]heptane-2-sulfonamide] |  | 3.0 | 3.0 |  |
| COc1cccc2c1nn1c(=O)c(C(C)C)cn(C[C@H]3C[C@H]4C[C@@H]3CN4S(N)(=O)=O)c21 [Compound 42, (1S,4S,5S)-5-((3-Isopropyl-7-methoxy-4-oxopyrimido[1,2-b]indazol-1 (4H)-yl)methyl)-2-azabicyclo[2.2.1]heptane-2-sulfonamide] |  | 3.0 | 4.5 |  |
| CC(C)c1nn2c(=O)c(C(C)C)cn(C[C@H]3C[C@H]4C[C@@H]3CN4S(N)(=O)=O)c2c1F [Compound 43, (1S,4S,5S)-5-((3-Fluoro-2,6-diisopropyl-7-oxopyrazolo[1,5-a]pyrimidin-4(7H)-yl)methyl)-2-azabicyclo[2.2.1]heptane-2-sulfonamide] |  | 3.0 | 4.8 | 0.00398 |
| COc1c(C2CC2)nn2c(=O)c(C(C)C)cn(C[C@H]3C[C@H]4C[C@@H]3CN4S(N)(=O)=O)c12 [Compound 44, (1S,4S,5S)-5-((2-Cyclopropyl-6-isopropyl-3-methoxy-7-oxopyrazolo[1,5-a]pyrimidin-4(7H)-yl)methyl)-2-azabicyclo[2.2.1]heptane-2-sulfonamide] |  | 3.0 | 4.2 | 0.00501 |
| CC(C)c1cn(C[C@H]2C[C@H]3C[C@@H]2CN3S(N)(=O)=O)c2c(C#N)c(C3CC3)nn2c1=O [Compound 45, (1S,4S,5S)-5-((3-Cyano-2-cyclopropyl-6-isopropyl-7-oxopyrazolo[1,5-a]pyrimidin-4(7H)-yl)methyl)-2-azabicyclo[2.2.1]heptane-2-sulfonamide] |  |  |  | 0.00631 |
| CC(C)c1cn(Cc2ccc3c(c2)CCS3(=N)=O)c2nc(C3CC3)nn2c1=O (centres unmarked) [Compound 48, 2-Cyclopropyl-4-((1-imino-1-oxido-2,3-dihydro-1H-1l4-benzo[b]thiophen-5-yl)methyl)-6-isopropyl-[1,2,4]triazolo[1,5-a]pyrimidin-7(4H)-one] |  |  |  | 0.0316 |
| Cc1nc2n(Cc3ccc4c(c3)CCCS4(=N)=O)cc(C(C)C)c(=O)n2n1 (centres unmarked) [Compound 52, 4-((1-Imino-1-oxido-1/4-thiochroman-6-yl)methyl)-6-isopropyl-2-methyl-[1,2,4]triazolo[1,5-a]pyrimidin-7(4H)-one] |  |  |  | 0.126 |
| CC(C)c1cn(Cc2ccc3c(c2)OCCS3(=N)=O)c2nc(C3CC3)nn2c1=O (centres unmarked) [Compound 53, 2-Cyclopropyl-4-((4-imino-4-oxido-3,4-dihydro-2H-4lambda4-benzo[b][1,4]oxathiin-7-yl)methyl)-6-isopropyl-[1,2,4]triazolo[1,5-a]pyrimidin-7(4H)-one] |  |  |  | 0.1 |
| CC(C)c1cn(Cc2ccc(S(C)(=N)=O)cc2)c2cc(C3CC3)nn2c1=O (centres unmarked) [Compound 57, 2-Cyclopropyl-6-isopropyl-4-(4-(S-methylsulfonimidoyl)benzyl)pyrazolo[1,5-a]pyrimidin-7(4H)-one] |  | <1 | 3.0 |  |
| Cc1cc(S(C)(=N)=O)ccc1Cn1cc(C(C)C)c(=O)n2nc(C3CC3)cc12 (centres unmarked) [Compound 61, 2-Cyclopropyl-6-isopropyl-4-(2-methyl-4-(S-methylsulfonimidoyl)benzyl)pyrazolo[1,5-a]pyrimidin-7(4H)-one] |  | 3.0 | 3.8 | 0.00398 |
| CC(C)c1cn(Cc2ccc(S(C)(=N)=O)cc2F)c2cc(C3CC3)nn2c1=O (centres unmarked) [Compound 62, 2-Cyclopropyl-4-(2-fluoro-4-(S-methylsulfonimidoyl)benzyl)-6-isopropylpyrazolo[1,5-a]pyrimidin-7(4H)-one] |  | <1 | 3.0 |  |
| CC(C)c1cn(Cc2ccc(S(C)(=N)=O)c(F)c2)c2nc(C3CC3)nn2c1=O (centres unmarked) [Compound 63, 2-Cyclopropyl-4-(3-fluoro-4-(S-methylsulfonimidoyl)benzyl)-6-isopropyl-[1,2,4]triazolo[1,5-a]pyrimidin-7(4H)-one] |  |  |  | 0.01 |
| CC(C)c1cn(Cc2ccc(S(=N)(=O)C(C)C)cc2)c2nc(C3CC3)nn2c1=O (centres unmarked) [Compound 64, 2-Cyclopropyl-6-isopropyl-4-(4-(propan-2-ylsulfonimidoyl)benzyl)-[1,2,4]triazolo[1,5-a]pyrimidin-7(4H)-one] |  |  |  | 0.00794 |
